Our source for the IC50 values is US9617246B2, “Thioether-piperidinyl orexin receptor antagonists” (MERCK SHARP & DOHME CORP., priority 2013, dated 2017).

One test concerns the target hOX1R (Homo sapiens, UniProt O43613). Kind of test: FLIPR Ca2+ Flux Assay, orexin-1 receptor. The class given is cell-based. The settings on record: CHO cells, agonist 70 pM Ala-6,12 human orexin-A.
A further test addresses human orexin-2 receptor (Homo sapiens (Human), UniProt O43614). Kind of test: FLIPR Ca2+ Flux Assay, orexin-2 receptor. The class given is cell-based. Particulars: CHO cells, agonist 70 pM Ala-6,12 human orexin-A; read-out: hOX2R FLIPR IC50. The method, then: The utility of the compounds in accordance with the present invention as orexin receptor OX1R and/or OX2R antagonists may be readily determined without undue experimentation by methodology well known in the art, including the “FLIPR Ca^2+ Flux Assay” (Okumura et al., Biochem. Biophys. Res. Comm. 280:976-981, 2001). In a typical experiment the OX1 and OX2 receptor antagonistic activity of the compounds of the present invention was determined in accordance with the following experimental method. For intracellular calcium measurements, Chinese hamster ovary (CHO) cells expressing the rat orexin-1 receptor or the human orexin-2 receptor, are grown in Iscove's modified DMEM containing 2 mM L-glutamine, […], 1% hypoxanthine-thymidine supplement, 100 U/ml penicillin, 100 μg/ml streptomycin and 10% heat-inactivated fetal calf serum (FCS). The cells are seeded at 20,000 cells/well into Becton-Dickinson black 384-well clear bottom sterile plates coated with poly-D-lysine. All reagents were from GIBCO-Invitrogen Corp. The seeded plates are incubated overnight at 37° C. and 5% CO2. Ala-6,12 human orexin-A as the agonist is prepared as a 1 mM stock solution in 1% bovine serum albumin (BSA) and diluted in assay buffer (HBSS containing 20 mM HEPES, 0.1% BSA and 2.5 mM probenecid, pH7.4) for use in the assay at a final concentration of 70 pM. Test compounds are prepared as 10 mM stock solution in DMSO, then diluted in 384-well plates, first in DMSO, then assay buffer. On the day of the assay, cells are washed 3 times with 100 μl assay buffer and then incubated for 60 min (37° C., 5% CO2) in 60 μl assay buffer containing 1 μM Fluo-4AM ester, 0.02% pluronic acid, and 1% BSA. The dye loading solution is then aspirated and cells are washed 3 times with 100 μl assay buffer. 30 μl of that same buffer is left in each well. Within the Fluorescent Imaging Plate Reader (FLIPR, Molecular Devices), test compounds are added to the plate in a volume of 25 μl, incubated for 5 min and finally 25 μl of agonist is added. Fluorescence is measured for each well at 1 second intervals for 5 minutes and the height of each fluorescence peak is compared to the height of the fluorescence peak induced by 70 pM Ala-6,12 orexin-A with buffer in place of antagonist. For each antagonist, IC50 value (the concentration of compound needed to inhibit 50% of the agonist response) is determined. Alternatively, compound potency can be assessed by a radioligand binding assay (described in Bergman et. al. Bioorg. Med. Chem. Lett. 2008, 18, 1425-1430) in which the inhibition constant (Ki) is determined in membranes prepared from CHO cells expressing either the OX1 or OX2 receptor. The intrinsic orexin receptor antagonist activity of a compound which may be used in the present invention may be determined by these assays.
(In general: Calcium flux is commonly read through the fluorescence of an indicator in the cells.)

Sequence of human orexin-2 receptor (O43614 whole entry): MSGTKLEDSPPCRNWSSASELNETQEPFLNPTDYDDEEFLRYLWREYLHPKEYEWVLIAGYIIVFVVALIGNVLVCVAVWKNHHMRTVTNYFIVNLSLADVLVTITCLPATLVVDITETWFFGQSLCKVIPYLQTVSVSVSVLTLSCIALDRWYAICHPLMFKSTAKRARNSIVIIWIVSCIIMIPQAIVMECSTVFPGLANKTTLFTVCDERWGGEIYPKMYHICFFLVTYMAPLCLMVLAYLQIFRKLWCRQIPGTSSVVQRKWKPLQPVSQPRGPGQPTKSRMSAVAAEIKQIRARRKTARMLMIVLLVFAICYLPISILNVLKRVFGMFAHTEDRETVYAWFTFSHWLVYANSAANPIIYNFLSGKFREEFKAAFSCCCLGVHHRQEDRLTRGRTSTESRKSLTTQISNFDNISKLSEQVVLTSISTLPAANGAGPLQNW

As for `COC(=O)c1c(OC)ccnc1S[C@@H]1CC[C@@H](C)N(C(=O)c2ccccc2-n2nccn2)C1` [Example 49, Methyl 4-methoxy-2-{[(3R,6R)-6-methyl-1-{[2-(2H-1,2,3-triazol-2-yl)phenyl]carbonyl}piperidin-3-yl]sulfanyl}pyridine-3-carboxylate], the IC50 – broadly, the concentration that inhibits the measured activity by half – at hOX1R worked out at 73.2 nM; at human orexin-2 receptor, 11.1 nM.
Turning to `C[C@@H]1CC[C@@H](Sc2ccc(C(F)(F)F)cn2)CN1C(=O)c1ccccc1-n1nccn1` [Example 8, 2-{[(3R,6R)-6-methyl-1-{[2-(2H-1,2,3-triazol-2-yl)phenyl]carbonyl}piperidin-3-yl]sulfanyl}-5-(trifluoromethyl)pyridine], the IC50 at hOX1R was found to be 596 nM; at human orexin-2 receptor it was 322 nM.
`C[C@@H]1CC[C@@H](Sc2cc(C#N)ccn2)CN1C(=O)c1sccc1-c1ncccn1` [Example 42, 2-({(3R,6R)-6-methyl-1-[(3-pyrimidin-2-ylthiophen-2-yl)carbonyl]piperidin-3-yl}sulfanyl)pyridine-4-carbonitrile]: the IC50 was found to be 3560 nM on hOX1R and 5.3 nM on human orexin-2 receptor.
For the compound `C[C@@H]1CC[C@@H](Sc2cc(C#N)ccn2)CN1C(=O)c1cccc(F)c1-n1nccn1` [Example 19, 2-{[(3R,6R)-1-{[3-fluoro-2-(2H-1,2,3-triazol-2-yl)phenyl]carbonyl}-6-methylpiperidin-3-yl]sulfanyl}pyridine-4-carbonitrile], the IC50 on hOX1R turned out to be 2550 nM; at human orexin-2 receptor it was 20.8 nM.
As for `COc1ccc(C(=O)N2C[C@H](Sc3cc(C#N)ccn3)CC[C@H]2C)c(-n2nccn2)c1` [Example 23, 2-{[(3R,6R)-1-{[4-methoxy-2-(2H-1,2,3-triazol-2-yl)phenyl]carbonyl}-6-methylpiperidin-3-yl]sulfanyl}pyridine-4-carbonitrile], the IC50 at hOX1R stood at 7820 nM; at human orexin-2 receptor, 224 nM.
Consider `Cc1cccc(C(=O)N2C[C@H](Sc3cc(C#N)ccn3)CC[C@H]2C)c1-n1nccn1` [Example 18, 2-{[(3R,6R)-6-methyl-1-{[3-methyl-2-(2H-1,2,3-triazol-2-yl)phenyl]carbonyl}piperidin-3-yl]sulfanyl}pyridine-4-carbonitrile], for which the half-inhibitory concentration (IC50) at hOX1R stood at 803 nM; at human orexin-2 receptor, 14.4 nM.
For `COC(=O)c1c(C)ccnc1S[C@@H]1CC[C@@H](C)N(C(=O)c2ccccc2-n2nccn2)C1` [Example 1, Methyl 4-methyl-2-{[(3R,6R)-6-methyl-1-{[2-(2H-1,2,3-triazol-2-yl)phenyl]carbonyl}-piperidin-3-yl]sulfanyl}pyridine-3-carboxylate], the IC50 amounted to 27.8 nM at hOX1R and 22.2 nM at human orexin-2 receptor.
On the same counts, the results for `Cc1ccc(C(=O)N2C[C@H](Sc3cc(C#N)ccn3)CC[C@H]2C)c(-n2nccn2)c1` [Example 22, 2-{[(3R,6R)-6-methyl-1-{[4-methyl-2-(2H-1,2,3-triazol-2-yl)phenyl]carbonyl}piperidin-3-yl]sulfanyl}pyridine-4-carbonitrile] are 1500 nM and 49 nM.
Regarding `COC(=O)c1ccnc(S[C@@H]2CC[C@@H](C)N(C(=O)c3ccccc3-n3nccn3)C2)c1` [Example 13, methyl 2-{[(3R,6R)-6-methyl-1-{[2-(2H-1,2,3-triazol-2-yl)phenyl]carbonyl}piperidin-3-yl]sulfanyl}pyridine-4-carboxylate], the values for the IC50 on hOX1R and at human orexin-2 receptor were 6310 nM and 297 nM, respectively.
For `C[C@@H]1CC[C@@H](Sc2cc(C#N)ccn2)CN1C(=O)c1ccsc1-n1nccn1` [Example 44, 2-{[(3R,6R)-6-Methyl-1-{[2-(2H-1,2,3-triazol-2-yl)thiophen-3-yl]carbonyl}piperidin-3-yl]sulfanyl}pyridine-4-carbonitrile], the IC50 at hOX1R is 3920 nM; on human orexin-2 receptor it was 18.8 nM.
On to `C[C@@H]1CC[C@@H](Sc2cc(C#N)ccn2)CN1C(=O)c1ccc(Cl)cc1-n1nccn1` [Example 20, 2-{[(3R,6R)-1-{[4-chloro-2-(2H-1,2,3-triazol-2-yl)phenyl]carbonyl}-6-methylpiperidin-3-yl]sulfanyl}pyridine-4-carbonitrile], for which the IC50 at hOX1R came out at 1030 nM; at human orexin-2 receptor, 15.5 nM.
In the case of `Cc1cc(C#N)cc(S[C@@H]2CC[C@@H](C)N(C(=O)c3ccccc3-n3nccn3)C2)n1` [Example 2, 2-methyl-6-{[(3R,6R)-6-methyl-1-{[2-(2H-1,2,3-triazol-2-yl)phenyl]carbonyl}piperidin-3-yl]sulfanyl}pyridine-4-carbonitrile], the IC50 on hOX1R came to 1540 nM; on human orexin-2 receptor, 82.9 nM.
For the compound `COC(=O)c1c(I)ccnc1S[C@@H]1CC[C@@H](C)N(C(=O)c2ccccc2-n2nccn2)C1` [Example 4, methyl 4-iodo-2-{[(3R,6R)-6-methyl-1-{[2-(2H-1,2,3-triazol-2-yl)phenyl]carbonyl}piperidin-3-yl]sulfanyl}pyridine-3-carboxylate], the values for the IC50 at hOX1R and at human orexin-2 receptor were 54.4 nM and 23.6 nM, respectively.
Consider `C[C@@H]1CC[C@@H](Sc2cc(C#N)ccn2)CN1C(=O)c1ccccc1-c1ncccn1` [Example 41, 2-({(3R,6R)-6-methyl-1-[(2-pyrimidin-2-ylphenyl)carbonyl]piperidin-3-yl}sulfanyl)pyridine-4-carbonitrile], for which the IC50 on hOX1R was found to be 1580 nM; on human orexin-2 receptor, 18.9 nM.
